Data from ChEMBL document CHEMBL4385595, “Advancement of multi-target drug discoveries and promising applications in the field of Alzheimer's disease” (Eur J Med Chem, 2019).

Key:
Acetylcholinesterase = Acetylcholinesterase (Homo sapiens, UniProt P22303); assay: Inhibition of human AChE
[1] = molecular target: Glutamate [NMDA] receptor; assay: Inhibition of NMDA receptor (unknown origin); assay type: protein-complex assay, Homo sapiens
[2] = molecular target: Glycogen synthase kinase-3 beta (Homo sapiens, UniProt P49841); assay: Inhibition of human recombinant GSK-3beta using 19F peptide as substrate measured after 1.5 hrs by fluorescence method
Beta-secretase 1 = Beta-secretase 1 (Homo sapiens, UniProt P56817); assay: Inhibition of human recombinant BACE-1 using 19F peptide as substrate measured after 5 hrs by fluorescence method
[3] = molecular target: Amyloid-beta precursor protein (Homo sapiens) (UniProt P05067); assay: Inhibition of self-induced amyloid beta (1 to 42) (unknown origin) aggregation at 20 uM
[4] = molecular target: Microtubule-associated protein tau (Homo sapiens) (UniProt P10636); assay: Inhibition of tau aggregation (unknown origin) at 20 uM
Cholinesterase [5] = molecular target: T1, Cholinesterase (Homo sapiens, UniProt P06276); assay: Inhibition of human BuChE
SK-N-SH = assay: Inhibition of apoptosis in human SK-N-SH cells assessed as […] in cleaved caspase-3 by Western blot analysis; assay type: functional, cell-based
Cholinesterase [6] = molecular target: T1, Cholinesterase; assay: Inhibition of BuChE (unknown origin) assessed as decrease in thiocholine accumulation by spectrophotometry
[7] = Inhibition of calcium channel in rat ileum intestine assessed as reduction in Ca-induced contraction; assay type: tissue-based
Mus musculus = assay: In-vivo inhibition of NMDA receptor in mouse assessed as reduction in NMDA-induced convulsions administered intraperitoneally 40 mins before NMDA injection; assay type: functional, organism-based
Cholinesterase [8] = molecular target: T1, Cholinesterase; assay: Inhibition of BChE (unknown origin)

T1 sequence (P06276 whole entry): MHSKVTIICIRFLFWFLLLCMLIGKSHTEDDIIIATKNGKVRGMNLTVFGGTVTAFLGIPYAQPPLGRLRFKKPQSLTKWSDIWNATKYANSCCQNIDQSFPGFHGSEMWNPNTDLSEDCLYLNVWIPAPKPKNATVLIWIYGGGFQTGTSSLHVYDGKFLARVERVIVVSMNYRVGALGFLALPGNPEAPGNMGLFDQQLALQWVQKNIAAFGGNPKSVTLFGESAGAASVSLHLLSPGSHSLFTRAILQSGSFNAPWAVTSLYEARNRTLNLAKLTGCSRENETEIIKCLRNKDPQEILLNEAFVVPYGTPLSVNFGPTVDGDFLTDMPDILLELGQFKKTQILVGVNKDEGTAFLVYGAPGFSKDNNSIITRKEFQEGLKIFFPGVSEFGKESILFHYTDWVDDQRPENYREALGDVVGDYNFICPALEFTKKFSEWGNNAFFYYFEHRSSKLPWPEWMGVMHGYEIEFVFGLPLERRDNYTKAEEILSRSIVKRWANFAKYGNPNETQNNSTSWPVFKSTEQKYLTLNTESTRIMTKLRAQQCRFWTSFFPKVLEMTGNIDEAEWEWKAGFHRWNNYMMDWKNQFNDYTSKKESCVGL
Acetylcholinesterase, sequence (P22303 whole entry): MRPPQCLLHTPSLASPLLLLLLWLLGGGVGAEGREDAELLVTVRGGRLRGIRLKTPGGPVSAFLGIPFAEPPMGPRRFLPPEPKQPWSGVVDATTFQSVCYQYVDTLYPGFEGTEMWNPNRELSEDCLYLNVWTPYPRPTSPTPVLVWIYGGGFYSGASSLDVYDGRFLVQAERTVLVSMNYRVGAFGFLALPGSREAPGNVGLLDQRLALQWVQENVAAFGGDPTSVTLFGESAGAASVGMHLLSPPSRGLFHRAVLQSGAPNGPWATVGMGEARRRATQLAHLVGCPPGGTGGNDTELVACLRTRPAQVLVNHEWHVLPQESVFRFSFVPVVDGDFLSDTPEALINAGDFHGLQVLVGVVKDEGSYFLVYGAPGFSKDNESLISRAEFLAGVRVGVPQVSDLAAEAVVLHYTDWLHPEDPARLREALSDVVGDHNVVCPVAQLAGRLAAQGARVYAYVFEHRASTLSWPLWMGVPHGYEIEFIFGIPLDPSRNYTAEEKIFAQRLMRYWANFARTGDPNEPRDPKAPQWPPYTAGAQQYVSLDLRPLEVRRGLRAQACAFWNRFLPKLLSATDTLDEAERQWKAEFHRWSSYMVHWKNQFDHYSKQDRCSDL
Amyloid-beta precursor protein (Homo sapiens), sequence (P05067 whole entry): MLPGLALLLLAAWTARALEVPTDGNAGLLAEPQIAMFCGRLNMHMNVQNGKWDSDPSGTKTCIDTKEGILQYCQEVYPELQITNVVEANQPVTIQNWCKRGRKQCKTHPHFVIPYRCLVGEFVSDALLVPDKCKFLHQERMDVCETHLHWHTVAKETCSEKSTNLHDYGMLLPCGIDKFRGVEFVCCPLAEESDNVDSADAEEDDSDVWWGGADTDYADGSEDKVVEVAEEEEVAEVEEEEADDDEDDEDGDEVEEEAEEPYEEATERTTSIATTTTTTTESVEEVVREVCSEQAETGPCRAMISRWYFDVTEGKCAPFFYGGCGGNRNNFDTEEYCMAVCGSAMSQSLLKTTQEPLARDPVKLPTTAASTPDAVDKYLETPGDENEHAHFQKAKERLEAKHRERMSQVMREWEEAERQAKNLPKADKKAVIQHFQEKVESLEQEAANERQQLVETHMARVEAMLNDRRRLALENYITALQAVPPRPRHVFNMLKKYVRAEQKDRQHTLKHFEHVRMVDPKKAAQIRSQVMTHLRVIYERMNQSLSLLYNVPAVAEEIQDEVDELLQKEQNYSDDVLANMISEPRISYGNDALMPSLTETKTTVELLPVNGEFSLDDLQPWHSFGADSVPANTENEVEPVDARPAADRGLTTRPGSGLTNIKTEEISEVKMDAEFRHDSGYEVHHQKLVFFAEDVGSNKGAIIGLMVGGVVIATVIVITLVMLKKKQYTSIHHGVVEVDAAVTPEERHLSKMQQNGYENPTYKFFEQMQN
Microtubule-associated protein tau (Homo sapiens), sequence (P10636 whole entry): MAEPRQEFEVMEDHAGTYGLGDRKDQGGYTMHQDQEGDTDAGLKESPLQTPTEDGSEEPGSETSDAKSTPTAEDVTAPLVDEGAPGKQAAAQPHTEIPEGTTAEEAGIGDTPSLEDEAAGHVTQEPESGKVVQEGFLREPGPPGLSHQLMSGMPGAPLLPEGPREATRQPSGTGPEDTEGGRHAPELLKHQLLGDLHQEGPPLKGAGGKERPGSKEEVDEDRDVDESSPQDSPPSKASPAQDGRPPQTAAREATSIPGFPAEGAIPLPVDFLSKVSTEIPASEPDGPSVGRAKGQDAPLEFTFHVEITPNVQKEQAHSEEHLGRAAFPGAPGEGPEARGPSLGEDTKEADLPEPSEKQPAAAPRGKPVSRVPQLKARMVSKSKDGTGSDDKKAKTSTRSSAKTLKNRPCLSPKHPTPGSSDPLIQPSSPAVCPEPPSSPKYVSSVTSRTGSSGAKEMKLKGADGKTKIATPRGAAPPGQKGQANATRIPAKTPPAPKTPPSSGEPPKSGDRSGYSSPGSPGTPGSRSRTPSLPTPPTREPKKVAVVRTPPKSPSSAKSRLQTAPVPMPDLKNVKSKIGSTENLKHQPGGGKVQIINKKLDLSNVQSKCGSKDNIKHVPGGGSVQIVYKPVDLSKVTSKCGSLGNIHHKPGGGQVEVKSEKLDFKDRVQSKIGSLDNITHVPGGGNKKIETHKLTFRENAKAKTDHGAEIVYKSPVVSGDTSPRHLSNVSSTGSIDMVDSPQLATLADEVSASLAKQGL
Glycogen synthase kinase-3 beta, sequence (P49841 whole entry): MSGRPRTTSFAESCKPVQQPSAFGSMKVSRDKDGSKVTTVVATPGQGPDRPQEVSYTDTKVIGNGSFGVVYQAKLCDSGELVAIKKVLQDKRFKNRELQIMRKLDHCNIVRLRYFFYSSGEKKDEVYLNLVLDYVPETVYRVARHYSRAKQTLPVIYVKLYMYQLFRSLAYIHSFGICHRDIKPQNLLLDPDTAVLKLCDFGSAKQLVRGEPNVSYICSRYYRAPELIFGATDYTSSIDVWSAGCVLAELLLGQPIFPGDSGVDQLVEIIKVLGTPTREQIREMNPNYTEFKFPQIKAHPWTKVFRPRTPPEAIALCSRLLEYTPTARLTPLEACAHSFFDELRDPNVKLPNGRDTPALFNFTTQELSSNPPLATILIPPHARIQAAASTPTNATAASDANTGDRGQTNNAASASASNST
Beta-secretase 1, sequence (P56817 whole entry): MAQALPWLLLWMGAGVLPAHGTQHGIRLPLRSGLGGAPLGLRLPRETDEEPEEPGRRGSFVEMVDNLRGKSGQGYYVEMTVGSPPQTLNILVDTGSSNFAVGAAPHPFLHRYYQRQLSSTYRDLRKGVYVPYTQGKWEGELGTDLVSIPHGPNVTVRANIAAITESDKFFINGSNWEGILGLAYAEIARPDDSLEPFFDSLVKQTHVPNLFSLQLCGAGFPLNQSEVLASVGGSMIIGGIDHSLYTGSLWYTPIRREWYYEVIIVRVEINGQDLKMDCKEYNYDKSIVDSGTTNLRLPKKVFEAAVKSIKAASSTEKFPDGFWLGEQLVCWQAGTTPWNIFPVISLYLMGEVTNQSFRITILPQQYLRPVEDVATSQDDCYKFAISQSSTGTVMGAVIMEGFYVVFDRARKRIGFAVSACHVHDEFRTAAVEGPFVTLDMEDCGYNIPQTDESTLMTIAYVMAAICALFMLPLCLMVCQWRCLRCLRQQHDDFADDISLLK

## Cc1ccc2[nH]c3c(c2c1)CN(CCCCCCN1CCc2[nH]c4ccc(C)cc4c2C1)CC3
Acetylcholinesterase
  IC50: 0.195 µM
[1]
  IC50: 11 µM

## O=c1[nH]c(=O)c2cc[nH]c2[nH]1 [7-DEAZAXANTHINE]
[2]
  IC50: 0.7 µM
Beta-secretase 1
  IC50: 0.3 µM

## CC[C@@H](CN1CCCC1=O)C(=O)NCCCCCCCNc1c2c(nc3cc(Cl)ccc13)C[C@H]1C=C(C)C[C@@H]2C1
[3]
  inhibition: 36%
[4]
  inhibition: 54%
Cholinesterase [5]
  IC50: 0.232 µM
Acetylcholinesterase
  IC50: 0.0042 µM

## C#CCN[C@@H]1CCc2ccc(OC(=O)N(C)CC)cc21 [LADOSTIGIL]
SK-N-SH
  IC50: 1050 µM

## Cc1ccc2c(c1)c1c(n2CCc2ccc(C)nc2)CCN(C)C1 [LATREPIRDINE]
Cholinesterase [6]
  IC50: 7900 µM
[7]
  IC50: 57 µM
Mus musculus
  EC50: 42 mg/kg

## CCN1CCc2c(c3ccccc3n2CCC(=O)N2c3ccccc3Sc3ccccc32)C1
Cholinesterase [8]
  IC50: 0.52 µM
